Patent US20120202840A1, “Use of Flubendazole and Vinca Alkaloids for Treatment of Hematological Diseases” (priority 2009, published 2012)
Read-outs that look alike come from different tables or passages of the source.

Experiments:
OCI-AML2 cells = assay: MTS cell growth and viability assay, OCI-AML2; assay type: cell-based; details: OCI-AML2, 72 h, MTS assay
Description: (A) OCI-AML2 cells were treated for 72 h with increasing concentrations of benzimidazoles. After incubation, cell growth and viability was measured by the MTS assay. Data represent the mean percentage of viable cells ±SD from a representative experiment.

CEM = assay: MTS cell growth and viability assay, CEM; assay type: cell-based; details: Homo sapiens, CCRF-CEM, 3 replicates
Description: (§1) Leukemia (U937, MDAY, CEM, CEM-VBL) and solid tumor cell lines (PPC-1, HeLa) were cultured in RPMI 1640 medium. The epidermoid carcinoma cell lines KB-3-1 and KB-4.0-HTI^23 were grown in Dulbecco's Modified Eagle Medium. The lung carcinoma cell lines A549 and A549.EpoB40 were grown in RPMI with the latter supplemented with 20% fetal calf serum (FCS), and 40 nM epothilone B.^24 Leukemia cell lines OCI-AML2, CEM, and NB4 and all the myeloma cell lines (OPM2, KMS11, JJN3 LP1, H929, L1, KMS12, KSM18 and OCI My5) were maintained in Iscove's Modified Dulbecco's Medium (IMDM). TEX cells were maintained in IMDM, 15% FCS, 1% penicillin-streptomycin, 2 mM L-glutamine, 20 ng/mL SCF, 2 ng/mL IL-3. Unless otherwise noted, all media were supplemented with 10% FCS, 100 units/mL of streptomycin and 100 μg/mL of penicillin (all from Hyclone, Logan, Utah). Cells were incubated in a humidified air atmosphere containing 5% CO2 at 37° C.
(§2) Cell growth and viability was measured using the 3-(4,5-dimethylthiazol-2-yl)-5-(3-carboxymethoxyphenyl)-2-(4-sulfophenyl)-2H-tetrazolium inner salt (MTS) reduction assay (Promega, Madison, Wis.) according to the manufacture's protocol and as previously described^25. Cells were seeded in 96 well plates and treated with drug for 72 h. Optical density (OD) was measured at 490 nm.

PPC-1 cells [1] = assay: Microtubules in cultured cells (confocal microscopy); assay type: cell-based; details: PPC-1, 1.0 μM, 24 hours
Description: (D) PPC-1 cells were treated with 1.0 μM flubendazole (i) or control (ii) for 24 h and stained with DAPI and an anti α-tubulin AlexaFluor 488 nm antibody. Images were captured using an Olympus Fluorview confocal microscope at room temperature. Representative confocal micrographs at 40× are shown.
PPC-1 cells (5.0×10^3) were seeded on glass cover slips in a 6 well plate overnight at 37° C. and then treated with 1.0 μM flubendazole or vehicle control for 24 h. Cells were then fixed in 3.7% paraformeldehyde for 15 min at 37° C., permeabilized using 0.1% triton X-100 for 4 min at room temperature, and incubated at 4° C. overnight in a humidified chamber with a blocking solution (0.5% BSA). Cells were then incubated with a primary mouse anti α-tubulin antibody (clone DMIA, 1:300, in 0.5% BSA; Sigma) for 1 hour at 37° C., washed 3 times in PBS and subsequently incubated with a goat anti-mouse IgG, AlexaFluor 488 secondary antibody (1:500, Sigma) for 1 hour in the dark at room temperature. Cells were then washed, stained with 4′,6-diamidino-2-phenylindole (DAPI) and mounted on a microscope slide using Dakocytomation fluorescent mounting media (Dakocytamation, Carpinteria, Calif.). Slides were imaged using the Olympus Fluoview FV1000 Laser Scanning Confocal Microscope (Olympus America Inc., Center Valley, Pa.) at room temperature at 40×.

in vitro = assay type: cell-based; details: human
Description: (§3) (E) HeLa cells were grown to confluence and a wound created on the cell monolayer using a 200 μL pipette. Cells were treated with increasing concentrations of flubendazole and imaged every 2 h for 8 h. Wound healing was measured as described in the materials and methods. Representative data is shown and are presented as % wound recovery. *p<0.05 (ANOVA, bonferroni post hoc).
(§4) HeLa cell migration was measured as previously described^30. Briefly, HeLa cells were seeded in 4 well chambers and grown to confluence. A wound was inflicted to the monolayer using a 200 μL pipette tip. Wells were washed with media to remove any detached cells and media containing either 0 μM, 0.5 μM or 1.0 μM flubendazole was then added and incubated at 37° C. for 8 hours. Images were captured using a Zeiss Axiovert 200M microscope every 2 hours. These images were quantified using Image J software, which outlined and enumerated the number of pixels in the wound area. Cell migration of HeLa cells was recorded and calculated as a percent recovery of wound area.

HeLa cells = assay: in vitro; assay type: cell-based; details: HeLa, 0.5 or 1.0 μM, 8 hours
Description: as §3, §4

PPC-1 cells [2] = assay: Mitotic catastrophe (multinucleated cells); assay type: cell-based; details: 1.0 μM, 24 h
Description: (C) PPC-1 cells were treated as above and stained with anti α-tubulin antibody and DAPI, as described in the materials and methods. Cells were imaged by confocal microscopy and the number of multi-nucleated cells was enumerated. Data represent the mean±SD percent of multinucleated cells from a representative experiment *p<0.0001 (unpaired t test). Insert: a representative multi-nucleated cell.
Mitotic catastrophe was measured by enumerating the number of multinucleated cells similar to the method previously described^26. Briefly, cells (5.0×10^5) were fixed and stained as described below. Fields containing 100 cells per treatment group were selected at random and visualized at 20×. A total of 700 cells were scored per treatment condition. A positive score for mitotic catastrophe was given when two or more distinct nuclear lobes were visualized within a single cell.

CEM-VBL = assay: MTS assay, CEM-VBL (Pgp over-expressing); assay type: cell-based
Description: Over-expression of P-glycoprotein (Pgp, MDR1) renders cells resistant to vinca alkaloid microtubule inhibitors.^43 Therefore, the effects of Pgp over-expression on flubendazole's cytotoxicity were tested. CEM-VBL cells over-express Pgp,^44 which was confirmed with a rhodamine dye exclusion assay. CEM wild type and CEM-VBL cells were treated with increasing concentrations of flubendazole or vinblastine and cell viability measured by the MTS assay (Table 1). […] In contrast, CEM-VBL cells over-expressing Pgp were resistant to vinblastine at concentrations greater than 5.0 μM (Table 1).
as §1, §2

[3] = chickens, up to 180 mg/kg daily for 7 days; cited from earlier work
[4] = healthy volunteers, 1000 mg single oral dose, three days after administration; cited from earlier work
[5] = rats, up to 150 mg/kg/day for 3 months; cited from earlier work

SMILES: COC(=O)Nc1nc2ccc(C(=O)c3ccc(F)cc3)cc2[nH]1 [flubendazole]
- rank of potency in panel of 8 benzimidazoles (OCI-AML2 cells): most potent
- IC50 (CEM): 1900 ± 900 nM
- microtubule architecture in intact cells (PPC-1 cells [1]): disrupts the microtubule architecture
- viability at 8 h (in vitro): > 89%
- cell migration / wound healing (HeLa cells): impaired cell migration and delayed wound healing
- number of multi-nucleated cells (PPC-1 cells [2]): increased the number of multi-nucleated cells
- IC50 (CEM-VBL; CEM-VBL, 3 replicates): 2700 ± 1200 nM
- sensitivity of CEM-VBL cells compared to wild type controls (CEM-VBL; Pgp over-expression): fully sensitive
- toxicity [3]: developed anemia and reduction of red cells in the spleen
- unchanged drug detected in the feces [4]: 77%
- unchanged drug detected in the urine [4]: less than 0.1%
- toxicity [5]: No toxicity was noted
